# Test results reported in patent US20220119354A1, “DIAMINO-SUBSTITUTED PYRIDINES AND PYRIMIDINES AS HERBICIDES” (FMC Corporation, priority 2019, published 2022).
# Columns and labels:
# Format in all cases: in vivo
# [1] = tested on: galium (catchweed bedstraw, Galium aparine); assay: Test A postemergence, galium; settings: 0 to 100 scale
# Procedure, shortened: (§1)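 Greenhouse evaluation: treated and untreated pots were held about 10 d, then injury was rated visually from 0 (no effect) to 100 (complete control). Application was preemergence to soil or postemergence to seedlings 2–10 cm tall, using a non-phytotoxic solvent formulation with surfactant.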
# [2] = tested on: blackgrass (Alopecurus myosuroides); assay: Test A postemergence, blackgrass; settings: 0 to 100 scale
# Procedure, shortened: as §1
# kochia (Kochia scoparia) [3] = assay: Test A postemergence, kochia; settings: 0 to 100 scale
# Procedure, shortened: as §1
# [4] = tested on: pigweed (Amaranthus retroflexus); assay: Test A postemergence, pigweed; settings: 0 to 100 scale
# Procedure, shortened: as §1
# [5] = tested on: foxtail, giant (Setaria faberii); assay: Test A preemergence, giant foxtail; settings: 0 to 100 scale; for Foxtail, Giant plant response rating: 0 is no effect, 100 is complete control
# Procedure, shortened: as §1
# rice (Oryza sativa) = assay: Test B flooded paddy test, rice; settings: Flood, 250 g ai/ha, applied to paddy water, 2-leaf stage, visual evaluation after 13 to 15 d
# Procedure, shortened: (§2)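 Rating: 0 = no effect, 100 = complete control, visual, relative to untreated plants. Conditions: 2-leaf stage, 3 cm flood kept constant, compound put directly into water, 13–15 d greenhouse.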
# [6] = tested on: barnyardgrass (Echinochloa crus-galli); assay: Test B flooded paddy test, barnyardgrass; settings: Flood, 250 g ai/ha, applied to paddy water, 2-leaf stage, visual evaluation after 13 to 15 d
# Procedure, shortened: as §2
# [7] = tested on: barnyardgrass (Echinochloa crus-galli); assay: Test A postemergence, barnyardgrass; settings: 0 to 100 scale
# Procedure, shortened: as §1
# [8] = tested on: ragweed (common ragweed, Ambrosia elatior); assay: Test A preemergence, ragweed; settings: 0 to 100 scale; for Ragweed plant response rating: 0 is no effect, 100 is complete control
# Procedure, shortened: as §1
# corn (Zea mays) = assay: Test A postemergence, corn; settings: 0 to 100 scale
# Procedure, shortened: as §1
# [9] = tested on: foxtail, giant (Setaria faberii); assay: Test A postemergence, giant foxtail; settings: 0 to 100 scale
# Procedure, shortened: as §1
# [10] = tested on: barnyardgrass (Echinochloa crus-galli); assay: Test A preemergence, barnyardgrass; settings: 0 to 100 scale; for Barnyardgrass plant response rating: 0 is no effect, 100 is complete control
# Procedure, shortened: as §1
# [11] = tested on: ryegrass, Italian (Lolium multiflorum); assay: Test A preemergence, Italian ryegrass; settings: 0 to 100 scale; for Ryegrass, Italian plant response rating: 0 is no effect, 100 is complete control
# Procedure, shortened: as §1
# [12] = tested on: wheat (Triticum aestivum); assay: Test A postemergence, wheat; settings: 0 to 100 scale
# Procedure, shortened: as §1
# [13] = tested on: ragweed (common ragweed, Ambrosia elatior); assay: Test A postemergence, ragweed; settings: 0 to 100 scale
# Procedure, shortened: as §1
# kochia (Kochia scoparia) [14] = assay: Test A preemergence, kochia; settings: 0 to 100 scale; for Kochia plant response rating: 0 is no effect, 100 is complete control
# Procedure, shortened: as §1
# [15] = tested on: ducksalad (Heteranthera limosa); assay: Test B flooded paddy test, ducksalad; settings: Flood, 250 g ai/ha, applied to paddy water, 2-leaf stage, visual evaluation after 13 to 15 d
# Procedure, shortened: as §2
# [16] = tested on: sedge, umbrella (small-flower umbrella sedge, Cyperus difformis); assay: Test B flooded paddy test, umbrella sedge; settings: Flood, 250 g ai/ha, applied to paddy water, 2-leaf stage, visual evaluation after 13 to 15 d
# Procedure, shortened: as §2
# [17] = tested on: pigweed (Amaranthus retroflexus); assay: Test A preemergence, pigweed; settings: 0 to 100 scale; for Pigweed plant response rating: 0 is no effect, 100 is complete control
# Procedure, shortened: as §1
# [18] = tested on: ryegrass, Italian (Lolium multiflorum); assay: Test A postemergence, Italian ryegrass; settings: 0 to 100 scale
# Procedure, shortened: as §1
SMILES,"Plant response rating, Galium ([1]; 125 g ai/ha)","Plant response rating, Galium ([1]; 500 g ai/ha)","Plant response rating, Blackgrass ([2]; 125 g ai/ha)","Plant response rating, Blackgrass ([2]; 500 g ai/ha)","Plant response rating, Kochia (kochia (Kochia scoparia) [3]; 125 g ai/ha)","Plant response rating, Kochia (kochia (Kochia scoparia) [3]; 500 g ai/ha)","Plant response rating, Pigweed ([4]; 125 g ai/ha)","Plant response rating, Pigweed ([4]; 500 g ai/ha)","Plant response rating, Foxtail, Giant ([5]; 500 g ai/ha)","Plant response rating, Rice (0 to 100 scale, 0 is no effect, 100 is complete control) (rice (Oryza sativa))","Plant response rating, Barnyardgrass (0 to 100 scale, 0 is no effect, 100 is complete control) [6]","Plant response rating, Barnyardgrass ([7]; 125 g ai/ha)","Plant response rating, Barnyardgrass ([7]; 500 g ai/ha)","Plant response rating, Ragweed ([8]; 500 g ai/ha)","Plant response rating, Corn (corn (Zea mays); 125 g ai/ha)","Plant response rating, Corn (corn (Zea mays); 500 g ai/ha)","Plant response rating, Foxtail, Giant ([9]; 125 g ai/ha)","Plant response rating, Foxtail, Giant ([9]; 500 g ai/ha)","Plant response rating, Barnyardgrass ([10]; 500 g ai/ha)","Plant response rating, Ryegrass, Italian ([11]; 500 g ai/ha)",further results
C[C@@H](Nc1ncc(C(F)(F)F)c(N)n1)c1cc2ccc(Cl)cc2o1 [Compound 29],80,100,0,10,50,90,100,100,90,0,0,20,80,80,0,10,0,50,90,70,"Plant response rating, Foxtail, Giant ([5]; 125 g ai/ha): 60; Plant response rating, Ragweed ([8]; 125 g ai/ha): 20; Plant response rating, Barnyardgrass ([10]; 125 g ai/ha): 0; Plant response rating, Ryegrass, Italian ([11]; 125 g ai/ha): 20; Plant response rating, Wheat ([12]; 125 g ai/ha): 0; Plant response rating, Wheat ([12]; 500 g ai/ha): 0; Plant response rating, Ragweed ([13]; 125 g ai/ha): 20; Plant response rating, Ragweed ([13]; 500 g ai/ha): 90; Plant response rating, Kochia (kochia (Kochia scoparia) [14]; 125 g ai/ha): 0; Plant response rating, Kochia (kochia (Kochia scoparia) [14]; 500 g ai/ha): 80; Plant response rating, Ducksalad (0 to 100 scale, 0 is no effect, 100 is complete control) [15]: 0; Plant response rating, Sedge, Umbrella (0 to 100 scale, 0 is no effect, 100 is complete control) [16]: 0; Plant response rating, Pigweed ([17]; 125 g ai/ha): 90; Plant response rating, Pigweed ([17]; 500 g ai/ha): 100; Plant response rating, Ryegrass, Italian ([18]; 125 g ai/ha): 0; Plant response rating, Ryegrass, Italian ([18]; 500 g ai/ha): 10"
Cc1cccc(OCC(C)Nc2ncc(C(F)(F)F)c(N)n2)c1 (stereo not drawn) [Compound 32],60,70,0,0,20,60,30,60,80,0,0,0,20,100,0,0,0,40,90,0,"Foxtail, Giant plant response rating ([5]; 125 g ai/ha): 20; Ragweed plant response rating ([8]; 125 g ai/ha): 0; Barnyardgrass plant response rating ([10]; 125 g ai/ha): 0; Ryegrass, Italian plant response rating ([11]; 125 g ai/ha): 0; Plant response rating, Wheat ([12]; 125 g ai/ha): 0; Plant response rating, Wheat ([12]; 500 g ai/ha): 0; Plant response rating, Ragweed ([13]; 125 g ai/ha): 0; Plant response rating, Ragweed ([13]; 500 g ai/ha): 40; Kochia plant response rating (kochia (Kochia scoparia) [14]; 125 g ai/ha): 0; Plant response rating, Kochia (kochia (Kochia scoparia) [14]; 500 g ai/ha): 30; Plant response rating, Ducksalad (0 to 100 scale, 0 is no effect, 100 is complete control) [15]: 0; Plant response rating, Sedge, Umbrella (0 to 100 scale, 0 is no effect, 100 is complete control) [16]: 0; Pigweed plant response rating ([17]; 125 g ai/ha): 10; Plant response rating, Pigweed ([17]; 500 g ai/ha): 60; Plant response rating, Ryegrass, Italian ([18]; 125 g ai/ha): 0; Plant response rating, Ryegrass, Italian ([18]; 500 g ai/ha): 0"
CC(COc1cc(F)cc(F)c1)Nc1ncc(C(F)(F)F)c(N)n1 (stereo not drawn) [Compound 33],20,60,0,0,0,30,0,30,30,0,0,0,0,0,0,0,0,0,0,0,"Foxtail, Giant plant response rating ([5]; 125 g ai/ha): 0; Ragweed plant response rating ([8]; 125 g ai/ha): 0; Barnyardgrass plant response rating ([10]; 125 g ai/ha): 0; Ryegrass, Italian plant response rating ([11]; 125 g ai/ha): 0; Plant response rating, Wheat ([12]; 125 g ai/ha): 0; Plant response rating, Wheat ([12]; 500 g ai/ha): 0; Plant response rating, Ragweed ([13]; 125 g ai/ha): 0; Plant response rating, Ragweed ([13]; 500 g ai/ha): 0; Kochia plant response rating (kochia (Kochia scoparia) [14]; 125 g ai/ha): 0; Plant response rating, Kochia (kochia (Kochia scoparia) [14]; 500 g ai/ha): 30; Plant response rating, Ducksalad (0 to 100 scale, 0 is no effect, 100 is complete control) [15]: 70; Plant response rating, Sedge, Umbrella (0 to 100 scale, 0 is no effect, 100 is complete control) [16]: 25; Pigweed plant response rating ([17]; 125 g ai/ha): 20; Plant response rating, Pigweed ([17]; 500 g ai/ha): 50; Plant response rating, Ryegrass, Italian ([18]; 125 g ai/ha): 0; Plant response rating, Ryegrass, Italian ([18]; 500 g ai/ha): 0"
CC(COc1cccc(C(F)(F)F)c1)Nc1ncc(C(F)(F)F)c(N)n1 (stereo not drawn) [Compound 34],30,70,0,30,30,70,0,60,90,0,0,0,20,80,0,10,0,30,100,30,"Foxtail, Giant plant response rating ([5]; 125 g ai/ha): 50; Ragweed plant response rating ([8]; 125 g ai/ha): 20; Barnyardgrass plant response rating ([10]; 125 g ai/ha): 80; Ryegrass, Italian plant response rating ([11]; 125 g ai/ha): 0; Plant response rating, Wheat ([12]; 125 g ai/ha): 0; Plant response rating, Wheat ([12]; 500 g ai/ha): 0; Plant response rating, Ragweed ([13]; 125 g ai/ha): 0; Plant response rating, Ragweed ([13]; 500 g ai/ha): 0; Kochia plant response rating (kochia (Kochia scoparia) [14]; 125 g ai/ha): 0; Plant response rating, Kochia (kochia (Kochia scoparia) [14]; 500 g ai/ha): 80; Plant response rating, Ducksalad (0 to 100 scale, 0 is no effect, 100 is complete control) [15]: 0; Plant response rating, Sedge, Umbrella (0 to 100 scale, 0 is no effect, 100 is complete control) [16]: 0; Pigweed plant response rating ([17]; 125 g ai/ha): 10; Plant response rating, Pigweed ([17]; 500 g ai/ha): 90; Plant response rating, Ryegrass, Italian ([18]; 125 g ai/ha): 0; Plant response rating, Ryegrass, Italian ([18]; 500 g ai/ha): 60"
CC(COc1cc(Cl)cc(Cl)c1)Nc1ncc(C(F)(F)F)c(N)n1 (stereo not drawn) [Compound 35],0,60,0,0,0,20,0,50,0,0,0,20,0,0,0,0,0,0,0,0,"Foxtail, Giant plant response rating ([5]; 125 g ai/ha): 0; Ragweed plant response rating ([8]; 125 g ai/ha): 0; Barnyardgrass plant response rating ([10]; 125 g ai/ha): 0; Ryegrass, Italian plant response rating ([11]; 125 g ai/ha): 0; Plant response rating, Wheat ([12]; 125 g ai/ha): 0; Plant response rating, Wheat ([12]; 500 g ai/ha): 0; Plant response rating, Ragweed ([13]; 125 g ai/ha): 0; Plant response rating, Ragweed ([13]; 500 g ai/ha): 0; Kochia plant response rating (kochia (Kochia scoparia) [14]; 125 g ai/ha): 0; Plant response rating, Kochia (kochia (Kochia scoparia) [14]; 500 g ai/ha): 40; Plant response rating, Ducksalad (0 to 100 scale, 0 is no effect, 100 is complete control) [15]: 0; Plant response rating, Sedge, Umbrella (0 to 100 scale, 0 is no effect, 100 is complete control) [16]: 0; Pigweed plant response rating ([17]; 125 g ai/ha): 0; Plant response rating, Pigweed ([17]; 500 g ai/ha): 0; Plant response rating, Ryegrass, Italian ([18]; 125 g ai/ha): 40; Plant response rating, Ryegrass, Italian ([18]; 500 g ai/ha): 30"
